# Experimental data: patent US8048866B2, “Preventive and/or therapeutic agent for calcipenia” (Nippon Beet Sugar MFG., Co., Ltd., priority 2004, dated 2011)
# Key:
# mice = assay: Acute toxicity test for 10 days using mice; assay type: in vivo; details: oral administration, 1,000 mg/kg
# Text: The dose of DFA III is not particularly limited to the foregoing range. When it is ingested over a long period of time for preservation of the health or for maintenance of the health, the dose may be lower than the foregoing range.
# Holstein calving cows [1] = assay: Degree of udder edema by palpation after oral administration of DFA III and DFA IV; assay type: in vivo, cow; details: time 0, before administration; heavy 4, medium 3, light 2, normal 1
# Experimental: (§1) As test cows, 15 Holstein calving cows with two or more calvings were used, and divided into three groups each consisting of 5 cows. Immediately after calving, the blood was sampled from the tail root. 300 ml of warm water was orally administered to the control group. 100 g of DFA III and 100 g of DFA IV each dissolved in 250 ml of warm water were orally administered to the DFA III group and the DFA IV group respectively. The blood was sampled from the tail root after 6 hours and 60 hours from the blood sampling immediately after calving. The degree of the udder edema was also confirmed by palpation.
# (§2) The blood was centrifuged at 3,000 rpm for 10 minutes, and the serum portion was stored at −30° C. until analysis. Calcium was analyzed by the OCPC method. The degree of udder was examined by palpation. A heavy degree was defined as 4, a medium degree as 3, a light degree as 2 and a normal degree as 1 respectively.
# [2] = system: cows with 2 or more calvings; assay: Influence of DFA III supply at a dry period on calcium concentration in blood of cows after calving; assay type: in vivo, cow
# Experimental: The influence of the DFA III supply at a dry period on the calcium concentration in blood of cows after calving was tested in vivo using actual cows.
# It has been so far considered that DFA III is administered to cows after caving which is effective for improving the calcium concentration in blood. On the other hand, the calcium concentration in blood is already decreased immediately after calving. As the decree of decrease is greater, vitality and appetite are weak and tend to be slowly recovered. Accordingly, DFA III was supplied at a dry period, and the influence of DFA III on the calcium concentration in blood immediately after calving was examined.
# DFA III supply; DFA III (50 g/day) was supplied at a dry period from 3 weeks before an expected date of calving through calving.
# Without DFA III supply; DFA III was not supplied before calving.
# 90 g of DFA III was, each time, supplied to both of the DFA III supply group and the group without DFA supply 0 hour and 6 hours after calving. At a dry period, 4 kg/day of a feed obtained by adding 12,000 IU of vitamin D to 4 kg of a feed was supplied to both the areas.
# Cows with 2 or more calvings were used.
# As DFA III supply cows, 10 cows which experienced calving after Apr. 30, 2004 were subjected to a test. As cows without DFA III supply, 38 cows which experienced calving from Jul. 14, 2002 through Apr. 18, 2004 and to which DFA III was not supplied at a dry period were used. Since the test started on Jul. 14, 2002, the test cows include 15 cows which experienced calving twice (8 DFA III supply cows and 7 cows without DFA III supply) during this period.
# In dry cows, milking was stopped 2 months before an expected date of calving. Then, a concentrate (crude protein content 18%, TDN 72%, Ca 0.9% P 0.5%) was supplied in an amount of 2 kg/day until 3 weeks before an expected date of calving. A concentrate (crude protein content 20%, TDN 75%, Ca 0.2%, P 0.5%) was supplied in an amount of 4 kg/day from 3 weeks before an expected date of calving through calving. As another feed, the cows were caused to freely take hay (crude protein content from 6 to 8%, TDN from 45 to 55%, Ca from 0.2 to 0.3%, P 0.2%) during the entire dry period. A mixture obtained by adding 50 g of DFA III to 4 kg of the concentrate given 3 weeks before an expected date of calving was supplied to the DFA III supply cows. As the feeds supplied after calving, the cows were caused to freely take 20 kg/day of TMR containing a grass silage a corn silage and a concentrate (crude feed rate 47.8%), 4 kg of a concentrate (crude protein content 18%, TDN 72%, Ca 0.9%, P 0.5%) and hay.
# In all cows, the blood was sampled from the tail root immediately after calving. Further, the blood sampling was performed from the same tail root after 6 hours, 24 hours and 72 hours from the blood sampling immediately after confinement (0 hour). In 0 hour and 6 hours for blood sampling, 90 g of DFA III, 100 g of calcium carbonate and 10,000 IU of vitamin D dissolved in warm water were orally administered each time.
# The blood was centrifuged at 3,000 rpm for 10 minutes, and the serum portion was stored at −30° C. until analysis. The calcium concentration was measured by the OCPC method.
# Holstein cows = assay: Effect of supply of DFA III and DFA IV on calcium metabolism, lactation and urine excretion amount of cows; assay type: in vivo, cow; details: supplied feeds and 100 g of DFA; for Excretion amount of calcium in urine / Milk fat rate / Milk protein rate / Milk yield: main period of 5 days
# Text: The effect of supply of DFA III and DFA IV on calcium metabolism, lactation and a urine excretion amount of cows was examined.
# Nine Holstein cows (2 to 4 calvings, 90 to 120 days after calving, average body weight 642 kg, average milk yield 36 kg) were divided into three groups, and subjected to a test by 3×3 Latin squares with one period of 15 days (preliminary period of 10 days and main period of 5 days).
# Regarding supplied feeds for a day, a grass silage, a cone silage and a beat pulp were used in fixed amounts of 3, 4 and 2 kg in terms of a dry weight respectively, and an amount of a concentrate (crude protein content 18% TDN content 74%) was ⅓ the milk yield. Further, a mineral agent and a vitamin agent were not supplied, and an insufficient feed for each cow was supplemented by supplying hay. These supplied feeds have the same contents in all cows, and they were caused to freely drink water.
# The foregoing supply only was applied to a control group Supplied feeds and 100 g of DFA III were applied to a DFA III group, and supplied feeds and 100 g of DFA IV were applied to a DFA IV group.
# The cows were accommodated in a metabolism test laboratory, and milking was conducted twice at 5 o'clock and 17 o'clock. The milk yield was measured and milk composition were analyzed for five days as the main period. The total amount of feces and urine was recovered for five days as the main period, and the fixed amounts thereof were mixed and subjected to analysis.
# As is apparent from the results, no great difference was found among the groups in the dry matter intake and the calcium intake. The milk yield was increased in the DFA III and DFA IV groups by approximately 1 kg in comparison to the control group. No difference was found either among the groups in the milk fat rate and the milk protein rate. […] In the table, TDN indicates a total amount of a digestible nutrient.
# Holstein calving cows [3] = assay: Effect of DFA III and calcium and vitamin D on calcium concentration in blood at the time of calving of cows; assay type: in vivo, cow
# Experimental: The effect of DFA III and calcium and vitamin D on the calcium concentration in blood at the time of calving of cows was examined.
# As test cows, 15 Holstein calving cows with 2 or more calvings were used, and divided into three groups each consisting of 5 cows. Immediately after calving, the blood was sampled from the tall root. 100 g of DFA III dissolved in 250 ml of warm water was orally administered to the DFA III group. DFA III and calcium carbonate in amounts of 100 g each which were dissolved in 200 ml of warm water were orally administered to the DFA III+Ca group. DFA III and calcium carbonate in amounts of 100 a each and 10,000 IU of vitamin D which were dissolved in 200 ml of warm water were orally administered to the DFA III+Ca+VD group. The blood was sampled from the tail root after 6, 24 and 70 hours from the blood sampling immediately after calving.
# The supply of the feeds and the analyses of the calcium concentration in blood were conducted in the same manner as in Example 3.
# Holstein calving cows [4] = assay: Influence of DFA III and DFA IV on calcium concentration in blood in calving of cows (OCPC method); assay type: in vivo, cow; details: for Increase of calcium concentration in blood from immediately after calving: in 6 hours, 100 g orally
# Experimental: The influence of DFA III and DFA IV on the calcium concentration in blood in calving of cows was examined.
# as §1
# Regarding the feeds supplied after calving, the cows were caused to freely take 20 kg/day of TMR containing a grass silage, a corn silage and a concentrate (hereinafter referred to as a mixed feed: forage rate 47.8%), 4 kg of a concentrate and hay. Conditions of calculating the requirement are as follow: day after calving—3, 2 calvings, body weight—612 kg, milk yield—20 kg, milk fat rate—4.0%, and milk protein rate—3.2%. NEl indicates a net energy of lactation, and efNDF indicates an effective neutral detergent insoluble fiber.
# as §2
# rumen microorganisms = assay: Degradability of DFA III and DFA IV in the rumen (incubation with rumen liquid inoculum); assay type: in vitro ADME, Holstein steer and cow; details: 400 mg/dl in culture solution, 39° C., 0 to 24 hours
# Text: In ruminants, for DFA III and DFA IV to accelerate calcium absorption, they have to reach intestines by avoiding degradation thereof in the rumen with microorganisms. Accordingly, degradability of DFA III and DFA IV in the rumen was examined.
# A rumen liquid was collected from each of a rumen cannula-fitted Holstein steer to which 4 kg of a concentrate was supplied in consideration of controlling nutrition of a dry cow and which was caused to freely take hay and a cow in which a milk yield was 30 kg and a rate of a concentrate in a supplied feed was 55%. The liquid was filtered through a four-fold gauze to form an inoculum.
# As a buffer, a 0.25 M phosphate buffer (KH2PO4 6.8045 g+Na2HPO4.12H2O 26.8605 g/500 ml, pH 7.0) was used, and 1 g of DFA III or DFA IV per 100 ml of this buffer was added.
# 30 ml of the inoculum and 20 ml of the buffer were added to a 200-ml conical flask. […] In 0, 1, 2, 4, 8, 12 and 24 hours of the culturing, the culture solution was collected from the flask, and analyzed.
# The culture solution in the flask was stirred. After 20 ml of the culture solution was collected, 0.1 ml of sulfosalicylic acid (20% solution was added for deproteinization. After centrifugation by 8,000 rotations for 10 minutes, the solution was filtered with a filter paper of 0.45 μm, and DFA III and DFA IV were analyzed by liquid chromatography. […]
# [5] = 6 hours after first blood sampling, 100 g orally immediately after calving
# [6] = time 0: blood sampling immediately after calving, before oral administration of 100 g
Structure (SMILES),Degree of udder edema (Holstein calving cows [1]),Increase of milk yield in comparison to the control group (Holstein cows),Excretion amount of calcium in urine (Holstein cows),Milk fat rate (Holstein cows),Milk protein rate (Holstein cows),Milk yield (Holstein cows),Calcium concentration in blood (Holstein calving cows [4]; [5]),Increase of calcium concentration in blood from immediately after calving (Holstein calving cows [4]),Calcium concentration in blood (Holstein calving cows [4]; [6]),other results
"OC[C@H]1O[C@@]2(CO[C@]3(CO)O[C@H](CO)[C@@H](O)[C@@H]3O2)[C@@H](O)[C@@H]1O [DFA III, di-D-fructfuranose-1,2;2,3′ dianhydride]",3.3,approximately 1 kg,4.2 g/day,3.86%,3.15%,35.6 kg/day,8.3 mg/dL,approximately 1 mg/dl,7.3 mg/dL,"Death in acute toxicity test (mice): no death example was observed; Calcium concentration in blood immediately after calving according to the parity ([2]; 10 DFA III supply cows, DFA III at dry period): not decreased by increasing the parity; Change in calcium concentration in blood after calving (0 to 72 hours) ([2]; Yes-Present calving, 8 cows, DFA III at dry period): shifted at a higher level than in the previous calving; Time for calcium concentration in blood to reach the normal value (9 to 11 mg/dl) ([2]; after calving, DFA III supplied at a dry period, 90 g DFA III, calcium carbonate and vitamin D at 0 and 6 hours): approximately 6 hours; Increase of calcium concentration in blood immediately after calving in comparison to the previous calving ([2]; present calving with DFA III 50 g/day at dry period vs previous calving without): 1.0 mg/dL; Calcium concentration in blood immediately after calving (average) ([2]; present calving, DFA III 50 g/day at a dry period from 3 weeks before expected date of calving): 8.1 mg/dL; Calcium concentration in blood immediately after calving, individual cows ([2]; present calving, DFA III supply at dry period): ≥ 7 mg/dL; Calcium concentration in blood (Holstein calving cows [3]; 6 hours after first blood sampling, oral administration immediately after calving): 7.9 mg/dL; Calcium concentration in blood (Holstein calving cows [3]; 70 hours after first blood sampling, oral administration immediately after calving): 8.5 mg/dL; Increase of calcium concentration in blood in comparison to that immediately after calving (Holstein calving cows [3]; in 6 hours): 1.2 mg/dL; Calcium concentration in blood (Holstein calving cows [3]; time 0: immediately after calving, before oral administration): 6.7 mg/dL; Calcium concentration in blood (Holstein calving cows [4]; 60 hours after first blood sampling, 100 g orally immediately after calving): 8.0 mg/dL"
"OCC12OCC3OC(CO)(OCC(O1)C(O)C2O)C(O)C3O [DFA IV, di-D-fructfuranose-2,6:6.2′ dianhydride]",3.1,approximately 1 kg,4.0 g/day,3.92%,3.11%,35.2 kg/day,8.0 mg/dL,approximately 1 mg/dl,7.1 mg/dL,Degradation in rumen culture solution (rumen microorganisms; any of the inoculums): not degraded; Amount recovered in each incubation time (rumen microorganisms; liquid chromatography): approximately the total amounts thereof were recovered
